Test results from paper PMC7866984, “Molecular Structure, In Vitro Anticancer Study and Molecular Docking of New Phosphate Derivatives of Betulin” (Molecules, 2021).
Like-named read-outs stand apart in the source and are kept apart here.

Legend:
[1] = system: amelanotic melanoma (C-32) cells; assay: WST-1 cell viability assay, C-32; assay type: cell-based, human; settings: WST-1, 72 h, read-out: IC50 ± SD, C-32
Procedure: (§1) Evaluation of the effect of new betulin derivatives on the viability of the cultured cells was performed using the WST-1(water soluble tetrazolium salt) assay. Betulin 1 and cisplatin were used as the reference compounds.
(§2) The synthesized compounds and references were tested for cytotoxic activity in vitro against human cancer cell lines such as amelanotic melanoma (C-32, ATCC, Rockville, MD, USA), glioblastoma (SNB-19, DSMZ, Braunschweig, Germany), and breast cancer (T47D, and MDA-MB-231, ATCC, Rockville, MD, USA). Cell cultures were maintained using DMEM (Lonza, Basel, Switzerland) supplemented with 10% fetal bovine serum (FBS) (Biological Industries Cromwell, CT, USA) and penicillin (10,000 U/mL) –streptomycin (10 mg/mL) mix (Lonza, Basel, Switzerland).
(§3) Cultures were performed in 96-well plates (Nunc Thermo Fisher Scientific, Waltham, MA, USA). Cells were seeded at 5 × 10^4/well and incubated for 24 h (at 37 °C, 5% CO2, constant humidity). Then, the medium was replaced with a fresh one with the addition of test compounds in the concentration: 25; 12.5; 6.25; 3.12; 1.56; 0.78; 0.39; 0 µg/mL and incubated again for a further 72 h. After this time, the WST-1 test (Roche Molecular Biochemicals, Mannheim, Germany) was performed to assess the metabolic activity of the cells. The principle of the WST-1 colorimetric test is based on the ability of live cells to decompose bright red tetrazole salts of WST-1 to dark red formazan. The reaction is mediated by mitochondrial dehydrogenases and correlates with the number of cells and their metabolic activity. The absorbance was measured at λ = 450 nm with a UVM340 microplate reader (Biogenet, Józefów, Poland). Results were expressed as a mean value of at least three independent experiments performed in triplicate.

[2] = system: glioblastoma (SNB-19) cells; assay: WST-1 cell viability assay, SNB-19; assay type: cell-based, human; settings: WST-1, 72 h, read-out: IC50 ± SD, SNB-19
Procedure: as §1, §2, §3

breast cancer T47D cells [3] = assay: WST-1 cell viability assay, T47D; assay type: cell-based, human; settings: Homo sapiens, T47D, 72 h, read-out: IC50 ± SD, T47D
Procedure: as §1, §2, §3

[4] = system: breast cancer MDA-MB-231 cells; assay: WST-1 cell viability assay, MDA-MB-231; assay type: cell-based, human; settings: Homo sapiens, MDA-MB-231, 72 h, read-out: IC50 ± SD, MDA-MB-231
Procedure: as §1, §2, §3

[5] = RP-TLC experimental lipophilicity; assay type: physicochemical; settings: for RM0 / logPTLC: RP-TLC; for RM0: acetone/Tris buffer pH 7.4, extrapolated to zero acetone; for logPTLC: from RM0 by calibration equation; for -b: slope of regression plot RM = RM0 + bC
Source text: Lipophilicity is an important physicochemical parameter related to the biological activity of compounds. This descriptor, contained in Lipiński’s rule of five, concerns the transport of a compound through the biological membrane system and the formation of a compound–receptor complex. To assess the lipophilic nature of triterpenoids 3–5, 6a–6e, and 7a–7e, the reverse phase chromatography (RP-TLC) method was used (chromatographic procedure by RP-TLC is included in the Supplementary Materials). The theoretical characteristics of the chromatographic parameters (RM0, log PTLC) of the tested derivatives were also performed. […]
Chromatographic procedure by RP-TLC
The experimental lipophilicity parameters was determined using reversed-phase thin-layer chromatography (RP-TLC). The stationary phase was an aluminium backed silica gel RP-18 F254 S plates (Merck, Darmstadt, Germany). Chloroform solutions of reference compounds […]
(acetanilide, 4-bromoacetophenone, benzophenone, anthracene, DDT) and triterpenes 3-5, 6a-6e and 7a-7e were spotted on to the plates in the amount of 2 µL. The chromatograms were performed in triplicate for each compound. The chromatographic chambers were filled of mobile phases consisting of a mixture of acetone (POCh, Gliwice, Poland) and aqueous solution of buffer Tris [(tris-hydroxymethyl)aminomethane] (Fluka, Loughborough, 0.2 M, pH 7.4). The percent acetone volume was varied within the range of 90-60%, in 5% increments. The spots of compounds were visualized by spraying the plates with 10% ethanolic solution of sulphuric acid (VI) and heating for 3 min at 110°C [60]]. The RM values were calculated by the equation RM = log (1/Rf-1) on the basis of average Rf values. The RM0 parameters were obtained by extrapolating on the acetone content to zero, according to the equation RM = RM0 + bC (C – the percentage concentration of acetone in the mobile phase, b – the slope of the regression plot).
The experimental lipophilicity as log PTLC for triterpenes 3-5, 6a-6e and 7a-7e was calculated […]
obtained on the correlation between the literature log Plit values and the experimental RM0 values […]
Table S5. The theoretical values of lipophilicity for tested compounds 3-5, 6a-6e and 7a- […]
Table S6. The correlation matrix for theoretically obtained lipophilicity parameters of compounds 3-5, 6a-6e and 7a-7e. […]

[6] = system: histone H3 mRNA in SNB-19 and C-32 cells; assay: qRT-PCR expression of H3; assay type: cell-based, human; settings: 24 h, half of IC50
Procedure: (§4) In our work, we assessed the influence of the tested compounds on the expression of selected genes related to apoptosis. […] We examined their influence on the transcriptional activity of genes encoding a proliferation marker (histone H3), a cell cycle regulator (p53), and proteins related to the mitochondrial apoptosis pathway (BCL-2 and BAX). The study was performed after 24-h exposure of the cultured cells to the test compounds (half of IC50).
(§5) The influence of tested compounds on the transcriptional activity of cells of the genes H3, TP53, BCL-2, and BAX was investigated. Assays were performed by real-time qRT-PCR on an Opticon TM DNA Engine (MJ Research, USA) using the QuantTect® SYBR® Green qRT-PCR Kit (Qiagen, Valencia, […]). Cells were exposed to compound 7a and 7b for 24 h at a concentration equal to half of IC50 for appropriate cell line. For the reference compound, cisplatin, concentrations were 0.8 µg/mL (SNB-19 line) and 0.6 µg/mL (C-32 line). RNA extraction was performed on spin columns using the Quick RNATM MiniPrep kit (Zymo Research, Irvine, CA, USA). RNA extracts were assessed qualitatively and quantitatively. Total RNA integrity was checked electrophoretically on a 1.2% agarose gel with ethidium bromide. The amount and purity of total RNA in the extracts were determined spectrophotometrically with the HP8452A spectrophotometer (Hewlett Packard, Waldbronn, Germany).

[7] = system: TP53 mRNA in SNB-19 and C-32 cells; assay: qRT-PCR expression of TP53; assay type: cell-based, human; settings: 24 h, half of IC50
Procedure: as §4, §5

[8] = system: BAX/BCL-2 mRNA in SNB-19 and C-32 cells; assay: qRT-PCR BAX/BCL-2 ratio; assay type: cell-based, human; settings: 24 h, half of IC50
Procedure: as §4, §5

[9] = system: amelanotic melanoma (C-32) cells; settings: cited from earlier work
[10] = system: glioblastoma (SNB-19) cells; settings: cited from earlier work
breast cancer T47D cells [11] = settings: cited from earlier work

Compound	IC50 ([1]; Homo sapiens, C32, 72 h) [µM]	IC50 ([2]; Homo sapiens, SNB-19, 72 h) [µM]	IC50 (breast cancer T47D cells [3]) [µM]	IC50 [4] [µM]	RM0 [5]	logPTLC [5]	-b [5]	melting point [°C]	IC50 [1] [µM]	IC50 [2] [µM]	number of mRNA copies of histone H3 gene vs control [6]	number of mRNA copies of TP53 [7]	mRNA copy number BAX to BCL-2 ratio [8]	IC50 [9] [µM]	IC50 [10] [µM]	IC50 (breast cancer T47D cells [11]) [µM]
C=C(COP(=O)(OCC)OCC)[C@@H]1CC[C@]2(COC(=O)C#Cc3ccccc3)CC[C@]3(C)C(CCC4[C@@]5(C)CC[C@H](O)C(C)(C)C5CC[C@]43C)C12 (some centres unmarked) [Compound 7d, 30-Diethoxyphosphoryloxy-28-(2-phenylpropynoyl)betulin]	6.9 ± 0.4	4.38 ± 0.04	9.47 ± 0.03	> 50	6.145	7.982	0.070	131 to 134	–	–	–	–	–	–	–	–
C=C(COP(=O)(OCC)OCC)[C@@H]1CC[C@]2(COC(=O)C#CC3CC3)CC[C@]3(C)C(CCC4[C@@]5(C)CC[C@H](OC(=O)C#CC6CC6)C(C)(C)C5CC[C@]43C)C12 (some centres unmarked) [Compound 6c, 3,28-Di(2-cyclopropylpropynoyl)-30-diethoxyphosphoryloxybetulin]	> 50	> 50	> 50	> 50	6.419	8.330	0.071	67 to 70	–	–	–	–	–	–	–	–
C=C(COP(=O)(OCC)OCC)[C@@H]1CC[C@]2(COC(=O)C#Cc3ccccc3)CC[C@]3(C)C(CCC4[C@@]5(C)CC[C@H](OC(=O)C#Cc6ccccc6)C(C)(C)C5CC[C@]43C)C12 (some centres unmarked) [Compound 6d, 30-Diethoxyphosphoryloxy-3,28-di(2-phenylpropynoyl)betulin]	31.5 ± 1.56	11.2 ± 0.28	> 50	> 50	7.877	10.174	0.086	89 to 91	–	–	–	–	–	–	–	–
C=C(COP(=O)(OCC)OCC)[C@@H]1CC[C@]2(COC(=O)C#CC)CC[C@]3(C)C(CCC4[C@@]5(C)CC[C@H](O)C(C)(C)C5CC[C@]43C)C12 (some centres unmarked) [Compound 7b, 28-(2-Butynoyl)-30-diethoxyphosphoryloxybetulin]	0.76	0.8	15.4 ± 0.51	4.93 ± 0.44	5.431	–	0.063	133 to 136	0.8 ± 0.03	0.76 ± 0.14	reduced the number of mRNA copies of the histone H3 gene	increase the number of mRNA copies of TP53	increased the mRNA copy number to BAX and BCL-2 ratio	–	–	–
C#CC(=O)OC[C@]12CC[C@@H](C(=C)C)[C@@H]1[C@H]1CC[C@@H]3[C@@]4(C)CC[C@H](O)C(C)(C)[C@@H]4CC[C@@]3(C)[C@]1(C)CC2 [28-O-propynoylbetulin]	–	–	–	–	–	–	–	–	–	–	–	–	–	16.7	4.2	111
C#CC(=O)OC[C@]12CC[C@@H](C(=C)COP(=O)(OCC)OCC)C1C1CCC3[C@@]4(C)CC[C@H](O)C(C)(C)C4CC[C@@]3(C)[C@]1(C)CC2 (some centres unmarked) [Compound 7a, 30-Diethoxyphosphoryloxy-28-propynoylbetulin]	2.15 ± 0.22	0.91 ± 0.09	2.61 ± 0.42	6.2 ± 0.22	5.318	6.937	0.062	177 to 180	–	–	reduced the number of mRNA copies of the histone H3 gene	increase the number of mRNA copies of TP53	increased the mRNA copy number to BAX and BCL-2 ratio	–	–	–
